pIC50: −log10 of the molar value. Bridge positions count the residues as written; N and C are the ends. Square brackets hold non-standard residues; d marks the D form. Peptide text beside a SMILES is read from it. * marks the point of attachment. ξ: configuration not given here. Phe(3-CF3) = N[C@@H](Cc1cccc(C(F)(F)F)c1)C(=O)O; Phe(4-COOH) = N[C@@H](Cc1ccc(C(=O)O)cc1)C(=O)O; Bip = N[C@@H](Cc1ccc(-c2ccccc2)cc1)C(=O)O; NH(CH2)14COOH = O=C(O)CCCCCCCCCCCCCCN*; Phe(3-Me) = Cc1cccc(C[C@H](N)C(=O)O)c1; NH(CH2)12COOH = O=C(O)CCCCCCCCCCCCN*; Val(3-OH) = CC(C)(O)[C@H](N)C(=O)O; 3Pal = N[C@@H](Cc1cccnc1)C(=O)O; 4Pal = N[C@@H](Cc1ccncc1)C(=O)O; Cha = N[C@@H](CC1CCCCC1)C(=O)O; Cit = NC(=O)NCCC[C@H](N)C(=O)O; Ile(3ξ) = CCC(C)[C@H](N)C(=O)O; Thr(3ξ) = CC(O)[C@H](N)C(=O)O; Dap(Me) = CNC[C@H](N)C(=O)O; 12Ado = NCCCCCCCCCCCC(=O)O; Carboxymethyl = O=C(O)C*; Orn = NCCC[C@H](N)C(=O)O; Aun = NCCCCCCCCCCC(=O)O; Dab = NCC[C@H](N)C(=O)O; Dap = NC[C@H](N)C(=O)O; AEEA = NCCOCCOCC(=O)O; Piv = CC(C)(C)C(=O)*; ξC = NC(CS)C(=O)O
Each compound was assayed against T1, PD-1/PD-L1 interaction (PE-labeled human PD-L1-Ig binding to Jurkat cell line over-expressing human PD-1) (Homo sapiens, UniProt Q15116) (assay: Jurkat-PD-1 Cell Binding High-Content Screening Assay (CBA)). Details: Jurkat cell line over-expressing human PD-1; PE-labeled PD-L1-Ig 20 nM final; read-out: Jurkat hPD1-PDL1 IC50.
T1 construct: expressed in transfected cells; host or cells: Jurkat
T1 sequence (Q15116 25-288): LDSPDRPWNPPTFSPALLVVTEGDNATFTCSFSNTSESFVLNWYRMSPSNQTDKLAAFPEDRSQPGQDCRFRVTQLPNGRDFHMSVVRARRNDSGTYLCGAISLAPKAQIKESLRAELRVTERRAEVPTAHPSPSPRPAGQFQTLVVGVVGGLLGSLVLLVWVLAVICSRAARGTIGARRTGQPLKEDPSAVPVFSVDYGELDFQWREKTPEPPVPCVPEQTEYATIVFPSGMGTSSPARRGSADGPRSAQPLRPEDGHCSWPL
Format: cell-based
Method in brief: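 Jurkat-hPD-1 cells, DMEM/10% FCS; cpd 2 h 37° C; PE-PD-L1-Ig 20 nM final, 1 h; 4% PFA fix + Hoechst 33342, 3× dPBS wash; high-content imaging read-out.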

| SMILES | pIC50 |
| --- | --- |
| Cc1cccc(C[C@@H]2NC(=O)[C@H](CC(=O)O)NC(=O)[C@H](Cc3ccc(OCC(=O)O)cc3)NC(=O)[C@H](Cc3cccnc3)NC(=O)CSC[C@@H](C(=O)N[C@@H](CCN)C(=O)NCCCCCCCCCCC(=O)O)NC(=O)[C@H]([C@@H](C)O)NC(=O)[C@H](C(C)C)NC(=O)[C@H](CC3CCCCC3)NC(=O)[C@H](CCN)NC(=O)[C@@H](CC(C)C)NC(=O)[C@H](CCCN)NC(=O)[C@H](CCCNC(N)=O)NC(=O)[C@H](Cc3ccc(-c4ccccc4)cc3)NC(=O)[C@H](C(C)C)NC2=O)c1 [Compound 2832] ({CH2CO}-[3Pal]Y(Carboxymethyl)D[Phe(3-Me)]V[Bip][Cit][Orn][dL][Dab][Cha]VTC[Dab][Aun]-OH; thioether N-14) | 7.32 |
| CNC[C@@H]1NC(=O)CSC[C@@H](C(=O)N[C@@H](CCN)C(=O)NCCOCCOCC(=O)N[C@@H](CO)C(=O)N[C@@H](CO)C(=O)N[C@@H](CO)C(=O)N[C@@H](CO)C(=O)N[C@@H](CCC(=O)NCCCCCCCCCCCCCCC(=O)O)C(=O)O)NC(=O)[C@H](Cc2cnc[nH]2)NC(=O)[C@H](C(C)(C)O)NC(=O)[C@H](CC2CCCCC2)NC(=O)[C@H](CCN)NC(=O)[C@@H](CC(C)C)NC(=O)[C@H](CCCN)NC(=O)[C@H](Cc2ccc(C(=O)O)cc2)NC(=O)[C@H](Cc2ccc(-c3ccccc3)cc2)NC(=O)[C@H](Cc2ccc(C(=O)O)cc2)NC(=O)[C@H](Cc2cccc(C(F)(F)F)c2)NC(=O)[C@H](CC(=O)O)NC(=O)[C@H](Cc2ccc(OCC(=O)O)cc2)NC1=O [Compound 3901] ({CH2CO}-[Dap(Me)]Y(Carboxymethyl)D[Phe(3-CF3)][Phe(4-COOH)][Bip][Phe(4-COOH)][Orn][dL][Dab][Cha][Val(3-OH)]HC[Dab][AEEA]SSSSE(NH(CH2)14COOH)-OH; thioether N-14) | 6.76 |
| CC(=O)NCCCC[C@@H]1NC(=O)[C@H](Cc2ccc(-c3ccccc3)cc2)NC(=O)[C@H](CCNC(C)=O)NC(=O)[C@H](Cc2cccc(C)c2)NC(=O)[C@H](CC(=O)O)NC(=O)[C@H](Cc2ccc(OCC(=O)O)cc2)NC(=O)[C@H](Cc2ccc(OCC(=O)O)cc2)NC(=O)CSC[C@@H](C(=O)N[C@@H](CCN)C(=O)N[C@@H](CO)C(=O)NCCCCCCCCCCCC(=O)O)NC(=O)[C@H](Cc2cnc[nH]2)NC(=O)[C@H](C(C)O)NC(=O)[C@H](CC2CCCCC2)NC(=O)[C@H](CCN)NC(=O)[C@@H](CC(C)C)NC(=O)[C@H](CCCN)NC1=O (stereo partly drawn) [Compound 3646] ({CH2CO}-Y(Carboxymethyl)Y(Carboxymethyl)D[Phe(3-Me)][Dab](Ac)[Bip]K(Ac)[Orn][dL][Dab][Cha][Thr(3ξ)]HC[Dab]S[12Ado]-OH; thioether N-14) | 7.02 |
| CC(C)C[C@H]1NC(=O)[C@H](CCCN)NC(=O)[C@H](C(C)C)NC(=O)[C@H](Cc2ccc(-c3ccccc3)cc2)NC(=O)[C@H](C(C)C)NC(=O)[C@H](Cc2c[nH]c3ccccc23)NC(=O)[C@H](CC(=O)O)NC(=O)[C@H](Cc2ccc(OCC(=O)O)cc2)NC(=O)[C@H](CN)NC(=O)CSCC(C(=O)N[C@@H](Cc2cnc[nH]2)C(=O)NCCCCCCCCCCC(=O)O)NC(=O)[C@H]([C@@H](C)O)NC(=O)[C@H](C(C)C)NC(=O)[C@H](CC2CCCCC2)NC(=O)[C@H](Cc2cnc[nH]2)NC1=O (stereo partly drawn) [Compound 1126] ({CH2CO}-[Dap]Y(Carboxymethyl)DWV[Bip]V[Orn][dL]H[Cha]VT[ξC]H[Aun]-OH; thioether N-14) | 7.13 |
| CC(C)C[C@H]1NC(=O)[C@H](CCCN)NC(=O)[C@H](Cc2ccc(O)cc2)NC(=O)[C@H](Cc2ccc(-c3ccccc3)cc2)NC(=O)[C@H](Cc2ccc(O)cc2)NC(=O)[C@H](Cc2c[nH]c3ccccc23)NC(=O)[C@H](CC(=O)O)NC(=O)[C@H](Cc2ccc(OCC(=O)O)cc2)NC(=O)[C@H](Cc2ccc(OCC(=O)O)cc2)NC(=O)CSC[C@@H](C(=O)NCCOCCOCC(=O)NCCCCCCCCCCC(=O)O)NC(=O)[C@H](CCCNC(=N)N)NC(=O)[C@H](Cc2ccc(O)cc2)NC(=O)[C@H](CC2CCCCC2)NC(=O)[C@H](CCN)NC1=O [Compound 2516] ({CH2CO}-Y(Carboxymethyl)Y(Carboxymethyl)DWY[Bip]Y[Orn][dL][Dab][Cha]YRC[AEEA][Aun]-OH; thioether N-14) | 6.90 |
| CC[C@H](C)[C@@H]1NC(=O)[C@H](Cc2ccc(-c3ccccc3)cc2)NC(=O)[C@H](C(C)C)NC(=O)[C@H](Cc2cccc(C)c2)NC(=O)[C@H](CC(=O)O)NC(=O)[C@H](Cc2ccc(C(=O)O)cc2)NC(=O)[C@H](Cc2ccncc2)NC(=O)CSC[C@@H](C(=O)NCCOCCOCC(=O)N[C@@H](CN)C(=O)NCCCCCCCCCCC(=O)O)NC(=O)[C@H]([C@@H](C)O)NC(=O)[C@H](C(C)C)NC(=O)[C@H](CC2CCCCC2)NC(=O)[C@H](CCN)NC(=O)[C@@H](CC(C)C)NC(=O)[C@H](CCCN)NC1=O [Compound 1188] ({CH2CO}-[4Pal][Phe(4-COOH)]D[Phe(3-Me)]V[Bip]I[Orn][dL][Dab][Cha]VTC[AEEA][Dap][Aun]-OH; thioether N-14) | 6.83 |
| COC[C@@H]1NC(=O)CSC[C@@H](C(=O)N[C@@H](CCN)C(=O)NCCCCCCCCCCCCC(=O)O)NC(=O)[C@H](CO)NC(=O)[C@H](C(C)(C)O)NC(=O)[C@H](CC2CCCCC2)NC(=O)[C@H](CCN)NC(=O)[C@@H](CC(C)C)NC(=O)[C@H](CCCN)NC(=O)[C@H](Cc2ccc(C(=O)O)cc2)NC(=O)[C@H](Cc2ccc(-c3ccccc3)cc2)NC(=O)[C@H](Cc2ccc(C(=O)O)cc2)NC(=O)[C@H](Cc2cccc(C(F)(F)F)c2)NC(=O)[C@H](CC(=O)O)NC(=O)[C@H](Cc2ccc(OCC(=O)O)cc2)NC1=O [Compound 2907] ({CH2CO}-S(Me)Y(Carboxymethyl)D[Phe(3-CF3)][Phe(4-COOH)][Bip][Phe(4-COOH)][Orn][dL][Dab][Cha][Val(3-OH)]SC[Dab]-{NH(CH2)12COOH}; thioether N-14) | 7.38 |
| CCC(C)[C@@H]1NC(=O)[C@H](Cc2ccc(-c3ccccc3)cc2)NC(=O)[C@H](C(C)C)NC(=O)[C@H](Cc2cccc(C)c2)NC(=O)[C@H](CC(=O)O)NC(=O)[C@H](Cc2ccc(OCC(=O)O)cc2)NC(=O)[C@H](C(C)O)NC(=O)CSC[C@@H](C(=O)N[C@@H](CCN)C(=O)NCCCCCCCCCCCCC(=O)O)NC(=O)[C@H](CO)NC(=O)[C@H](C(C)C)NC(=O)[C@H](CC2CCCCC2)NC(=O)[C@H](CCN)NC(=O)[C@@H](CC(C)C)NC(=O)[C@H](CCCN)NC1=O (stereo partly drawn) [Compound 3093] ({CH2CO}-[Thr(3ξ)]Y(Carboxymethyl)D[Phe(3-Me)]V[Bip][Ile(3ξ)][Orn][dL][Dab][Cha]VSC[Dab]-{NH(CH2)12COOH}; thioether N-14) | 7.30 |

The next compounds have a higher pIC50 than those just listed; values first:

| pIC50 | SMILES |
| --- | --- |
| 8.03 | CC[C@H](C)[C@@H]1NC(=O)[C@H](Cc2ccc(-c3ccccc3)cc2)NC(=O)[C@H](C(C)C)NC(=O)[C@H](Cc2c[nH]c3ccccc23)NC(=O)[C@H](CC(=O)O)NC(=O)[C@H](Cc2ccc(OCC(=O)O)cc2)NC(=O)[C@H](CN)NC(=O)CSCC(C(=O)NCCOCCOCC(=O)NCCCCCCCCCCC(=O)O)NC(=O)[C@H](CCCCN)NC(=O)[C@H](C(C)C)NC(=O)[C@H](CC2CCCCC2)NC(=O)[C@H](CCN)NC(=O)[C@@H](CC(C)C)NC(=O)[C@H](CCCN)NC1=O (stereo partly drawn) [Compound 2644] ({CH2CO}-[Dap]Y(Carboxymethyl)DWV[Bip]I[Orn][dL][Dab][Cha]VK[ξC][AEEA][Aun]-OH; thioether N-14) |
| 7.98 | Cc1cccc(C[C@@H]2NC(=O)[C@H](CC(=O)O)NC(=O)[C@H](Cc3ccc(OCC(=O)O)cc3)NC(=O)[C@H](Cc3ccncc3)NC(=O)CSC[C@@H](C(=O)N[C@@H](CCN)C(=O)NCCOCCOCC(=O)NCCCCCCCCCCCCC(=O)O)NC(=O)[C@H](CO)NC(=O)[C@H](C(C)(C)O)NC(=O)[C@H](CC3CCCCC3)NC(=O)[C@H](CCN)NC(=O)[C@@H](CC(C)C)NC(=O)[C@H](CCCN)NC(=O)[C@H](Cc3ccc(OCC(=O)O)cc3)NC(=O)[C@H](Cc3ccc(-c4ccccc4)cc3)NC(=O)[C@H](Cc3ccc(OCC(=O)O)cc3)NC2=O)c1 [Compound 2251] ({CH2CO}-[4Pal]Y(Carboxymethyl)D[Phe(3-Me)]Y(Carboxymethyl)[Bip]Y(Carboxymethyl)[Orn][dL][Dab][Cha][Val(3-OH)]SC[Dab][AEEA]-{NH(CH2)12COOH}; thioether N-14) |
| 8.06 | Cc1cccc(C[C@@H]2NC(=O)[C@H](CC(=O)O)NC(=O)[C@H](Cc3ccc(OCC(=O)O)cc3)NC(=O)[C@H](CCCNC(=N)N)NC(=O)CSC[C@@H](C(=O)N[C@@H](CCN)C(=O)NCCCCCCCCCCC(=O)O)NC(=O)[C@H](CCC(N)=O)NC(=O)[C@H](C(C)C)NC(=O)[C@H](CC3CCCCC3)NC(=O)[C@H](CCN)NC(=O)[C@@H](CC(C)C)NC(=O)[C@H](CCCN)NC(=O)[C@H](Cc3ccc(OCC(=O)O)cc3)NC(=O)[C@H](Cc3ccc(-c4ccccc4)cc3)NC(=O)[C@H](C(C)(C)O)NC2=O)c1 [Compound 2113] ({CH2CO}-RY(Carboxymethyl)D[Phe(3-Me)][Val(3-OH)][Bip]Y(Carboxymethyl)[Orn][dL][Dab][Cha]VQC[Dab][Aun]-OH; thioether N-14) |
| 7.62 | Cc1cccc(C[C@@H]2NC(=O)[C@H](CC(=O)O)NC(=O)[C@H](Cc3ccc(OCC(=O)O)cc3)NC(=O)[C@H](CCN)NC(=O)CSC[C@@H](C(=O)N[C@@H](CCCCN)C(=O)N[C@@H](CN)C(=O)NCCCCCCCCCCC(=O)O)NC(=O)[C@H](CCCCN)NC(=O)[C@H](C(C)C)NC(=O)[C@H](CC3CCCCC3)NC(=O)[C@H](CCN)NC(=O)[C@@H](CC(C)C)NC(=O)[C@H](CCCN)NC(=O)[C@H](Cc3ccc(O)cc3)NC(=O)[C@H](Cc3ccc(-c4ccccc4)cc3)NC(=O)[C@H](CCCCNC(=O)C(C)(C)C)NC2=O)c1 [Compound 3613] ({CH2CO}-[Dab]Y(Carboxymethyl)D[Phe(3-Me)]K(Piv)[Bip]Y[Orn][dL][Dab][Cha]VKCK[Dap][Aun]-OH; thioether N-14) |
